{"source": "patent US8513287B2", "about": "“Heterocyclic ring and phosphonoxymethyl group substituted pyridine derivatives and antifungal agent containing same” (Eisai R&D Management Co., Ltd., priority 2007, dated 2013)", "key": {"[1]": {"experiment": "physchem", "conditions": "25 °C", "description": "3-(3-(4-(Pyridin-2-yloxymethyl)-benzyl)-isoxazol-5-yl)-pyridin-2-ylamine described in Reference Example 1, which is the parent compound, and the compound of Example 1 were compared for solubility in a Britton-Robinson buffer (ionic strength: 0.3) at 25° C."}, "[2]": {"system": "C. albicans E81022 strain", "experiment": "Experimental systemic candidal infection model in mice", "type": "in vivo", "conditions": "for Mean Survival Days: tail vein at 0.5 and 9 hours after infection, observed until 14 days", "description": "(1) Preparation of Fungal Inoculant\nA standing culture of C. albicans E81022 strain was carried out for 24 hours at 35° C. in sabouraud dextrose agar medium (Difco), and the recovered fungal cells were suspended in sterile physiological saline (Otsuka Pharmaceutical). By counting the fungal number on cytometry plate, the suspension was diluted to 2×10^7 cells/mL with sterilized physiological saline to serve fungal inoculum.\nThe fungal inoculum was used in an amount of 0.2 mL to inoculate the mice in the tail vein (4×10^6 cells/mouse).\n(3) Preparation of Agent Solution, and Treatment\nThe compound of Example 1 was dissolved in concentrations of 13 mg/mL and 3.25 mg/mL with a 50 mM glycine buffer with a pH of 10 (Wako Pure Chemicals), these solutions were then diluted 10 times with 5% glucose (Otsuka Pharmaceutical). At 0.5 and 9 hours after infection, 0.2 mL of the agent solution was administered into a tail vein of the mice. The agent concentrations were 2.5 and 10 mg/kg (calculated as the active form). The number of animals in one group was 5 animals.\nThe protective effect was determined by observing life/death until 14 days after infection and calculating the mean survival days. The protective effect on the systemic candidal infection was measured for the compound of Example 1 by the method described in section 2."}, "[3]": {"experiment": "In vitro activity compared with the parent compound", "conditions": "ratio to parent compound"}, "[4]": {"experiment": "Pharmacokinetic evaluation in mice", "type": "in vivo, ICR mice", "conditions": "tail vein, 3 mg/kg, FIG. 15", "description": "(§1) (1) Preparation of Administration Solution\n(§2) (2) Administration, and Sampling of Blood and Plasma\nUsing five-week-old female ICR mice (Charles River Japan), with the number of mouse in one group being 2 mice, the compound according to the present invention and an active form thereof were administered into the tail vein in a dose of 3 mg/kg. The tail vein was punctured 0.25, 0.5, 1.5, 3, 5, and 8 hours after administration, and blood was collected with a heparin-treated pipette.\n(§3) (3) Plasma Concentration Measurement Method"}, "[5]": {"conditions": "in vivo, 0.4 mg/kg", "description": "as §1, §2\nBlood was collected from the radial cutaneous vein 0.25, 0.5, 1, 2, 4, and 6 hours after administration using a heparin-treated syringe. The blood samples were put into sampling tubes and stored under ice cooling, they were then centrifuged for 5 minutes at 10,500×g and at 4° C. The plasma thus obtained was accurately divided into 5 μL amounts and stored at −20° C. until they were analyzed.\nas §3\nImipramine hydrochloride (Sigma) was dissolved in a mixed solution of acetonitrile and methanol (1:1) so that the concentration would be 0.5 μmol/L, to prepare an internal standard substance solution (IS solution). The plasma was melted, 200 μL of IS solution was then added thereto and mixed, and this was centrifuged (deproteinated) for 10 minutes at 1500×g and at 4° C., the supernatant was then analyzed by LC-MS (Waters)."}}, "note": "Where two headings read alike, the source gives them in different places.", "data": [{"smiles": "Nc1c(-c2cc(Cc3ccc(COc4ccccn4)cc3)no2)ccc[n+]1COP(=O)([O-])O", "note": "[Example 1, 2-Amino-1-((phosphonoxy)methyl)-3-(3-((4-((2-pyridinyloxy)methyl)phenyl)methyl)-5-isoxazolyl)-pyridinium]", "values": [{"measurement": "solubility", "setting": "[1]; pH 5, aqueous buffer", "value": 1.9, "unit": "mg/mL"}, {"measurement": "solubility", "setting": "[1]; pH 7, aqueous buffer", "value": 10.5, "unit": "mg/mL"}, {"measurement": "solubility", "setting": "[1]; pH 8, aqueous buffer", "value": 16.4, "unit": "mg/mL"}, {"measurement": "solubility", "setting": "[1]; pH 9, aqueous buffer", "value": "> 21.1", "unit": "mg/mL"}, {"measurement": "Mean Survival Days", "setting": "[2]; 3.25 mg/kg (calculated as active form: 2.5 mg/kg)", "value": 7.4, "unit": "days"}, {"measurement": "Mean Survival Days", "setting": "[2]; 13 mg/kg (calculated as active form: 10 mg/kg)", "value": 12.8, "unit": "days"}, {"measurement": "protective effect on the systemic candidal infection (survival versus untreated group)", "setting": "[2]; life/death until 14 days after infection", "value": "survived for a longer time as compared to the untreated group"}, {"measurement": "in vitro activity with respect to the parent compound (Reference Example 1)", "setting": "[3]", "value": "1/100"}, {"measurement": "plasma concentration of the active form after administration of the compound of Example 1", "setting": "[4]", "value": "increased quickly from immediately after administration"}, {"measurement": "plasma concentration of the compound of Example 1", "setting": "[4]", "value": "decreased quickly after administration"}, {"measurement": "plasma concentration of the active form after administration of the compound of Example 1", "setting": "[5]", "value": "rose quickly"}, {"measurement": "plasma concentration of the compound of Example 1", "setting": "[5]", "value": "under the detection limit"}]}, {"smiles": "Nc1ncccc1-c1cc(Cc2ccc(COc3ccccn3)cc2)no1", "note": "[Parent compound, 3-(3-(4-(Pyridin-2-yloxymethyl)-benzyl)-isoxazol-5-yl)-pyridin-2-ylamine, reference compound]", "values": [{"measurement": "solubility", "setting": "[1]; Britton-Robinson buffer, pH 5, aqueous buffer", "value": "< 0.1", "unit": "mg/mL"}, {"measurement": "solubility", "setting": "[1]; Britton-Robinson buffer, pH 7, aqueous buffer", "value": "< 0.1", "unit": "mg/mL"}, {"measurement": "solubility", "setting": "[1]; Britton-Robinson buffer, pH 8, aqueous buffer", "value": "< 0.1", "unit": "mg/mL"}, {"measurement": "solubility", "setting": "[1]; Britton-Robinson buffer, pH 9, aqueous buffer", "value": "< 0.1", "unit": "mg/mL"}]}]}
